Laboratory results from article PMC3890692 (ACS medicinal chemistry letters, 2013).

Tests used:
B. anthracis (Sterne) = settings: mice infected with a lethal dose of B. anthracis (Sterne); cited from earlier work
[1] = Mouse pharmacokinetic study, intraperitoneal
[2] = following a single dose, i.p., mice

SMILES: O=C([O-])[C@H](Cc1ccccc1)N1C(=O)/C(=C\c2ccc(-c3ccc(Cl)c(Cl)c3)o2)NC1=S.[Na+] [Compound 12-ES-Na]
- prevention of mortality / block of infection (B. anthracis (Sterne)): can effectively block Bacillus anthracis infection in mice
- Cl ([1]; Group 1, 25 mg/kg i.p., CD-1 female mice): 2.33 mL/min/kg
- Cl ([1]; Group 2, 50 mg/kg i.p., CD-1 female mice): 1.67 mL/min/kg
- Cl ([1]; Group 3, 100 mg/kg i.p., CD-1 female mice): 0.917 mL/min/kg
- mortality and clinical observations ([1]; dosage below 100 mg/kg, i.p., CD-1 female mice): no mortality and no significant clinical observations
- AUC relative to the MIC [1, 2]: more than 200 fold
- time of concentration above MIC [1, 2]: more than 10 hours
- clearance ([1]; rodent PK profile, i.p., mice): ~ 100 mL/h/kg
